Source: patent US20130296266A1, “Pharmaceutical Composition of Complex Carbohydrates and Essential Oils and Methods of Using the Same” (Dermal Research Laboratories, Inc., priority 1999, published 2013)

How the values were obtained:
[1] = tested on: polymyositis; test: Mucosal treatment of polymyositis (Example 26); type: in vivo, human; conditions: 50 mg daily
Procedure: A person suffering from colon cancer had been unable to tolerate their colostomy and demanded that their surgeon reconnect their intestines. They refused chemotherapy but requested a preparation prepared according to this invention. They were given a formulation of sodium hyaluronate (Collaborative Laboratories, Inc) which was prepared with a mixture of molecular weights of hyaluronate (as in EXAMPLE 4). When they began taking the hyaluronate preparation, their CEA was 70.1. They have taken the hyaluronate at a dose of 10 mg three times per day mucosally and after 6 months of treatment their CEA has dropped to 4.1. They have taken no other treatments. This patient had also suffered from polymyositis for 15 years. […] After 6 months they have been able to reduce their Prednisone to 5 mg per day.

[2] = tested on: chronic eczema; test: Topical treatment of chronic eczema (Example 16); type: in vivo, human; conditions: person
Description: A person suffered from chronic eczema—scaly and red areas on their neck and arms. They had tried all types of treatments, including cortisone with no effect. They were given a preparation containing a mixture of low and high molecular weight sodium hyaluronate (prepared as in EXAMPLE 4) mixed with 1% Wintergreen Oil, 1% Spearmint Oil, and 0.5% Peppermint Oil. They applied it for one week. […] They have not treated the area for 2 months and has noted no return of signs of eczema.

SMILES	relief of polymyositis [1]	effect on eczema [2]
C[C@]12C=CC(=O)C=C1CC[C@@H]1[C@@H]2C(=O)C[C@@]2(C)[C@H]1CC[C@]2(O)C(=O)CO [Prednisone]	without much relief	–
C[C@]12CCC(=O)C=C1CC[C@@H]1[C@@H]2C(=O)C[C@@]2(C)[C@H]1CC[C@]2(O)C(=O)CO [cortisone]	–	no effect
